This note sets out measurements from patent EP4603105A1, “PHARMACEUTICAL COMPOSITION CONTAINING CYCLIC COMPOUND HAVING SELECTIVE KRAS INHIBITORY EFFECT AGAINST HRAS AND NRAS” (CHUGAI SEIYAKU KABUSHIKI KAISHA, priority 2022, dated 2024).

The subject of assay [1] is human lung cancer strain NCI-H441. Type of assay: cell-based. In short, it runs like this: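 Readout: […] after the ATP-based reagent. Compound: serial dilutions in dimethyl sulfoxide.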
For the next assay, the target named is HRAS wild-type protein (Homo sapiens, UniProt P01112). Nature of the assay: Binding to HRAS by surface plasmon resonance (SPR), KD and KD ratio to KRAS. The note with it: ratio of KD for HRAS wild-type protein to KD for KRAS. In outline: (§1)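 GDP-loaded biotinylated Avi-tag RAS proteins (E. coli-expressed) captured on a Biotin CAPture chip at ~100–300 RU; single-cycle kinetics at 30°C, 100 µL/min, 75 s injections of rising compound concentrations. HBS pH 7.4 running buffer with 1 mM DTT, 10 mM MgCl2, 10 µM GDP, 4% DMSO. KD from 1:1 binding fit.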

Assay [2] deals with GDP-bound NRAS wild-type protein (Homo sapiens, UniProt P01111). Nature of the assay: Binding to NRAS by surface plasmon resonance (SPR), KD and KD ratio to KRAS. The note with it: ratio of KD for GDP-bound NRAS wild-type protein to KD for KRAS. In outline:
as §1
(Surface plasmon resonance follows binding to a sensor surface in real time, without labels.)

Sequence of HRAS wild-type protein (P01112 whole entry): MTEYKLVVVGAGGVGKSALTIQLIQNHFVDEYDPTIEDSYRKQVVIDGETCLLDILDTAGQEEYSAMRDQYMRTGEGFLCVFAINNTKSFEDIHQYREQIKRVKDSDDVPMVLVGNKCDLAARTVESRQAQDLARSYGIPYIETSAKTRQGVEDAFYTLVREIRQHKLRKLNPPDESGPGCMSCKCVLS
Sequence of GDP-bound NRAS wild-type protein (P01111 whole entry): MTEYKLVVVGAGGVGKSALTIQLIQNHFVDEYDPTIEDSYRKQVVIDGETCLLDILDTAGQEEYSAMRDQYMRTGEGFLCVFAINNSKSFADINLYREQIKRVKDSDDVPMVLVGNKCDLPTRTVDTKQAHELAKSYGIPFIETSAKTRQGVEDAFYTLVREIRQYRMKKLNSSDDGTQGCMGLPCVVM

In assay [1], `CC[C@H](C)[C@@H]1NC(=O)[C@H](CC(C)C)N(C)C(=O)C[C@@H](C(=O)N2CCOCC2)N(C)C(=O)[C@H](C2CCCC2)N(C)C(=O)C2(CCCC2)NC(=O)[C@@H]2CC(F)(F)CN2C(=O)[C@H](CCc2ccc(C(F)(F)F)c(Cl)c2)NC(=O)CN(C)C(=O)[C@H](Cc2ccc(F)cc2)N2CCCCC[C@@H](C2=O)N(C)C(=O)CN(C)C1=O` [PP0966] came in with an IC50 of 34.6 nM. For the same molecule, the “HRAS /KRAS” value at HRAS wild-type protein is “B (a compound having 3 or more and less than 10 is denoted as B)”. Also, the “NRAS /KRAS” value in assay [2] is “B (a compound having 3 or more and less than 10 is denoted as B)”.

Turning to `CC[C@H](C)[C@@H]1NC(=O)[C@H](CC(C)C)N(C)C(=O)C[C@@H](C(=O)N2CCOCC2)N(C)C(=O)[C@H](C2CCCC2)N(C)C(=O)C2(CCC2)NC(=O)[C@@H]2CCCN2C(=O)[C@H](CCc2ccc(C(F)(F)F)c(Cl)c2)NC(=O)CN(C)C(=O)[C@H](Cc2ccc(F)cc2)N2CCCCC[C@@H](C2=O)N(C)C(=O)CN(C)C1=O` [PP0967], in assay [1], the IC50 was found to be 77.7 nM. For the same molecule, on HRAS wild-type protein, the “HRAS /KRAS” value is “B (a compound having 3 or more and less than 10 is denoted as B)”. Also, in assay [2], the “NRAS /KRAS” value is “B (a compound having 3 or more and less than 10 is denoted as B)”.

Consider `CC[C@H](C)[C@@H]1NC(=O)[C@H](CC(C)C)N(C)C(=O)C[C@@H](C(=O)N2CCOCC2)N(CC)C(=O)[C@H](C2CCCC2)N(C)C(=O)C2(CCCC2)NC(=O)[C@@H]2CCCN2C(=O)[C@H](CCc2ccc(C(F)(F)F)c(Cl)c2)NC(=O)CN(C)C(=O)[C@H](Cc2ccc(F)cc2)N2CCCCC[C@@H](C2=O)N(C)C(=O)CN(C)C1=O` [PP0970], for which 340 nM corresponded to half-maximal inhibition in assay [1] (IC50). Moreover, the “HRAS /KRAS” value at HRAS wild-type protein is “B (a compound having 3 or more and less than 10 is denoted as B)”. In assay [2], the “NRAS /KRAS” value is “B (a compound having 3 or more and less than 10 is denoted as B)”.

In assay [1], `CC[C@H](C)[C@@H]1NC(=O)[C@H](CC(C)C)N(C)C(=O)C[C@@H](C(=O)N(C)C)N(C)C(=O)[C@H](C2CCCC2)N(C)C(=O)C2(CCC2)NC(=O)[C@@H]2CC(F)(F)CN2C(=O)[C@H](CCc2ccc(C(F)(F)F)c(Cl)c2)NC(=O)CN(C)C(=O)[C@H](Cc2ccc(F)cc2)N2CCCCC[C@@H](C2=O)N(C)C(=O)CN(C)C1=O` [PP0973] showed an IC50 of 11.6 nM. For the same molecule, the “HRAS /KRAS” value on HRAS wild-type protein was “B (a compound having 3 or more and less than 10 is denoted as B)”. Besides, the “NRAS /KRAS” value in assay [2] was “B (a compound having 3 or more and less than 10 is denoted as B)”.

The molecule `CCO[C@@H]1C[C@H]2C(=O)NC3(CCC3)C(=O)N(C)[C@@H](C3CCCC3)C(=O)N(CCC3CCCC3)[C@H](C(=O)N(C)C)CC(=O)N(C)[C@@H](CC(C)C)C(=O)N[C@@H]([C@@H](C)CC)C(=O)N(C)CC(=O)N(C)[C@H]3CCCCCN(C3=O)[C@@H](Cc3ccc(F)cc3)C(=O)N(C)CC(=O)N[C@@H](CCc3ccc(C(F)(F)F)c(Cl)c3)C(=O)N2C1` [PP0976] yielded an IC50 in assay [1] of 1180 nM. Also, at HRAS wild-type protein, the “HRAS /KRAS” value was “B (a compound having 3 or more and less than 10 is denoted as B)”. For the same molecule, the “NRAS /KRAS” value in assay [2] was “B (a compound having 3 or more and less than 10 is denoted as B)”.

In assay [1], `CC[C@H](C)[C@@H]1NC(=O)[C@H](CC(C)C)N(C)C(=O)C[C@@H](C(=O)N(C)C)N(CCC2CCCC2)C(=O)[C@H](C2CCCC2)N(C)C(=O)C2(CCC2)NC(=O)[C@@H]2CC(F)(F)CN2C(=O)[C@H](CCc2ccc(C(F)(F)F)c(Cl)c2)NC(=O)CN(C)C(=O)[C@H](Cc2ccc(F)cc2)N2CCCCC[C@@H](C2=O)N(C)C(=O)CN(C)C1=O` [PP0977] returned a half-inhibitory concentration (IC50) of 1120 nM. Further, the “HRAS /KRAS” value at HRAS wild-type protein is “A (a compound having 10 or more and less than 20 is denoted as A)”. In assay [2], the “NRAS /KRAS” value is “B (a compound having 3 or more and less than 10 is denoted as B)”.

Consider `CCO[C@@H]1C[C@H]2C(=O)NC3(CCC3)C(=O)N(C)[C@@H](C3CCCC3)C(=O)N(C)[C@H](C(=O)N(C)C)CC(=O)N(C)[C@@H](CC)C(=O)N[C@@H]([C@@H](C)CC)C(=O)N(C)CC(=O)N(C)[C@H]3C/C=C\CCN(C3=O)[C@@H](Cc3ccc(C(F)(F)F)cc3)C(=O)N(C)CC(=O)N[C@@H](CCc3ccc(C(F)(F)F)c(Cl)c3)C(=O)N2C1` [PP0978], for which half-maximal inhibition in assay [1] (IC50) was put at 22.7 nM. Moreover, the “HRAS /KRAS” value at HRAS wild-type protein is “B (a compound having 3 or more and less than 10 is denoted as B)”. In addition, in assay [2], the “NRAS /KRAS” value is “A (a compound having 10 or more and less than 20 is denoted as A)”.

Turning to `CCO[C@@H]1C[C@H]2C(=O)NC3(CCC3)C(=O)N(C)[C@@H](C3CCCC3)C(=O)N(CC)[C@H](C(=O)N(C)C)CC(=O)N(C)[C@@H](CC)C(=O)N[C@@H]([C@@H](C)CC)C(=O)N(C)CC(=O)N(C)[C@H]3C/C=C\CCN(C3=O)[C@@H](Cc3ccc(C(F)(F)F)cc3)C(=O)N(C)CC(=O)N[C@@H](CCc3cc(F)c(C(F)(F)F)c(F)c3)C(=O)N2C1` [PP0980], the half-inhibitory concentration (IC50) in assay [1] stood at 223 nM. For the same molecule, the “HRAS /KRAS” value on HRAS wild-type protein was “B (a compound having 3 or more and less than 10 is denoted as B)”. Moreover, the “NRAS /KRAS” value in assay [2] is “A (a compound having 10 or more and less than 20 is denoted as A)”.

As to `CCO[C@@H]1C[C@H]2C(=O)NC3(CCC3)C(=O)N(C)[C@@H](C3CCCC3)C(=O)N(CCC3CCCC3)[C@H](C(=O)N3CCOCC3)CC(=O)N(C)[C@@H](CC)C(=O)N[C@@H]([C@@H](C)CC)C(=O)N(C)CC(=O)N(C)[C@H]3C/C=C\CCN(C3=O)[C@@H](Cc3ccc(C(F)(F)F)cc3)C(=O)N(C)CC(=O)N[C@@H](CCc3cc(F)c(C(F)(F)F)c(F)c3)C(=O)N2C1` [PP0981], the IC50 in assay [1] worked out at 797 nM. Also, on HRAS wild-type protein, the “HRAS /KRAS” value was “A (a compound having 10 or more and less than 20 is denoted as A)”. The “NRAS /KRAS” value in assay [2] is “AA (a compound having 20 or more is denoted as AA)”.

As for `CCO[C@@H]1C[C@H]2C(=O)NC3(CCC3)C(=O)N(C)[C@@H](C3CCCC3)C(=O)N(CCC3CCCC3)[C@H](C(=O)N(C)C)CC(=O)N(C)[C@@H](CC)C(=O)N[C@@H]([C@@H](C)CC)C(=O)N(C)CC(=O)N(C)[C@H]3C/C=C\CCN(C3=O)[C@@H](Cc3ccc(C(F)(F)F)cc3)C(=O)N(C)CC(=O)N[C@@H](CCc3cc(F)c(C(F)(F)F)c(F)c3)C(=O)N2C1` [PP0982], the IC50 in assay [1] was 372 nM. In addition, the “HRAS /KRAS” value on HRAS wild-type protein was “A (a compound having 10 or more and less than 20 is denoted as A)”. Further, the “NRAS /KRAS” value in assay [2] was “AA (a compound having 20 or more is denoted as AA)”.

For `CCO[C@@H]1C[C@H]2C(=O)NC3(CCC3)C(=O)N(C)[C@@H](C3CCCC3)C(=O)N(C)[C@H](C(=O)N(C)C)CC(=O)N(C)[C@@H](CC)C(=O)N[C@@H]([C@@H](C)CC)C(=O)NCC(=O)N(C)[C@H]3C/C=C\CCN(C3=O)[C@@H](Cc3ccc(C(F)(F)F)cc3)C(=O)N(C)CC(=O)N[C@@H](CCc3cc(F)c(C(F)(F)F)c(F)c3)C(=O)N2C1` [PP0983], in assay [1], half-maximal inhibition (IC50) was put at 19.5 nM. In addition, at HRAS wild-type protein, the “HRAS /KRAS” value was “A (a compound having 10 or more and less than 20 is denoted as A)”. For the same molecule, in assay [2], the “NRAS /KRAS” value is “A (a compound having 10 or more and less than 20 is denoted as A)”.

The molecule `CCO[C@@H]1C[C@H]2C(=O)NC3(CCC3)C(=O)N(C)[C@@H](C3CCCC3)C(=O)N(C)[C@H](C(=O)N(C)C)CC(=O)N(C)[C@@H](CC)C(=O)N[C@@H]([C@@H](C)CC)C(=O)N3CC[C@H]3C(=O)N(C)[C@H]3C/C=C\CCN(C3=O)[C@@H](Cc3ccc(C(F)(F)F)cc3)C(=O)N(C)CC(=O)N[C@@H](CCc3cc(F)c(C(F)(F)F)c(F)c3)C(=O)N2C1` [PP0984] displayed an IC50 in assay [1] of 64.6 nM. The “HRAS /KRAS” value on HRAS wild-type protein was “A (a compound having 10 or more and less than 20 is denoted as A)”. For the same molecule, the “NRAS /KRAS” value in assay [2] is “A (a compound having 10 or more and less than 20 is denoted as A)”.

Take `CCO[C@@H]1C[C@H]2C(=O)NC3(CCC3)C(=O)N(C)[C@@H](C3CCCC3)C(=O)N(C)[C@H](C(=O)N(C)C)CC(=O)N(C)[C@@H](CC)C(=O)N[C@@H]([C@@H](C)CC)C(=O)N(C)CC(=O)N(C)[C@H]3CCCCN(C3=O)[C@@H](Cc3ccc(C(F)(F)F)cc3)C(=O)N(C)CC(=O)N[C@@H](CCc3cc(Cl)c(C(F)(F)F)c(Cl)c3)C(=O)N2C1` [PP0985]: 12.2 nM corresponded to half-maximal inhibition in assay [1] (IC50). For the same molecule, the “HRAS /KRAS” value on HRAS wild-type protein was “C (A compound having a KD ratio of 0.1 or more and less than 3 is denoted as C)”. Further, the “NRAS /KRAS” value in assay [2] is “C (A compound having a KD ratio of 0.1 or more and less than 3 is denoted as C)”.

In assay [1], `CCO[C@@H]1C[C@H]2C(=O)NC3(CCC3)C(=O)N(C)[C@@H](C3CCCC3)C(=O)N(C)[C@H](C(=O)N(C)C)CC(=O)N(C)[C@@H](CC)C(=O)N[C@@H]([C@@H](C)CC)C(=O)N(C)CC(=O)N(C)[C@H]3CCCCN(C3=O)[C@@H](Cc3ccc(C(F)(F)F)cc3)C(=O)N(C)CC(=O)N[C@@H](CCc3ccc(OC(F)F)c(F)c3)C(=O)N2C1` [PP0986] came in with an IC50 of 45.9 nM. Moreover, on HRAS wild-type protein, the “HRAS /KRAS” value was “C (A compound having a KD ratio of 0.1 or more and less than 3 is denoted as C)”. Besides, the “NRAS /KRAS” value in assay [2] was “C (A compound having a KD ratio of 0.1 or more and less than 3 is denoted as C)”.

In assay [1], `CCO[C@@H]1C[C@H]2C(=O)NC3(CCC3)C(=O)N(C)[C@@H](C3CCCC3)C(=O)N(C)[C@H](C(=O)N(C)C)CC(=O)N(C)[C@@H](CC)C(=O)N[C@@H]([C@@H](C)CC)C(=O)N(C)CC(=O)N(C)[C@H]3CCCCN(C3=O)[C@@H](Cc3ccc(C(F)(F)F)cc3)C(=O)N(C)CC(=O)N[C@@H](CCc3ccc(Cl)c(Cl)c3)C(=O)N2C1` [PP0987] displayed an IC50 of 6.8 nM. Also, the “HRAS /KRAS” value at HRAS wild-type protein is “C (A compound having a KD ratio of 0.1 or more and less than 3 is denoted as C)”. For the same molecule, the “NRAS /KRAS” value in assay [2] is “C (A compound having a KD ratio of 0.1 or more and less than 3 is denoted as C)”.

As usually defined, the IC50 is the point on the concentration scale where inhibition reaches its midpoint.
